Data from PMC5935545 (Molecular cell, 2018).

How the values were obtained:
[1] = target: EZH2 Y646N (PRC2/EZH2^Y646N) (Homo sapiens, UniProt Q15910, Y641N); type: biochemical
EZH2 (PRC2) = EZH2 (PRC2) (Homo sapiens, UniProt Q15910); type: biochemical
EZH2 (PRC2), sequence (Q15910 whole entry): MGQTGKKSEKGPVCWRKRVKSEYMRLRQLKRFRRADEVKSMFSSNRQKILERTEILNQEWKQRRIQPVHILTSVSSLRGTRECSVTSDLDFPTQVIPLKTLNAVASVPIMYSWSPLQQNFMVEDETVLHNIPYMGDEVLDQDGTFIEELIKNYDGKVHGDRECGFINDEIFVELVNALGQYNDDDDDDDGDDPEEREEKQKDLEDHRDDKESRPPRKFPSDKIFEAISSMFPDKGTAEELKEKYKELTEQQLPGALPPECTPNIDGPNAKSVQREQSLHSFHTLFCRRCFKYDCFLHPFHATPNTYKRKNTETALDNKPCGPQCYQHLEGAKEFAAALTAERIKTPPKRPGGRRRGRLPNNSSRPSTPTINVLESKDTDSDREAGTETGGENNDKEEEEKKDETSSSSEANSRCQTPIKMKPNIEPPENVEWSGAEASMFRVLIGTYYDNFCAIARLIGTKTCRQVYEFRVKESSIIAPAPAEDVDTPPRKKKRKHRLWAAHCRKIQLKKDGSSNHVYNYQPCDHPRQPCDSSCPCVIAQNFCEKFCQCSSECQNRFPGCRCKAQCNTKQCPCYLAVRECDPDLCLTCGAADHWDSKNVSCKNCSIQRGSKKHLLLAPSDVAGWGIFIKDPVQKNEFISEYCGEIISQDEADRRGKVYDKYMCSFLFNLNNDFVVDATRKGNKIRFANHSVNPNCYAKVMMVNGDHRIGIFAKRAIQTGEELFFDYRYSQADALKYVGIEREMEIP
EZH2 (PRC2), sequence (O75530 2-441 partner): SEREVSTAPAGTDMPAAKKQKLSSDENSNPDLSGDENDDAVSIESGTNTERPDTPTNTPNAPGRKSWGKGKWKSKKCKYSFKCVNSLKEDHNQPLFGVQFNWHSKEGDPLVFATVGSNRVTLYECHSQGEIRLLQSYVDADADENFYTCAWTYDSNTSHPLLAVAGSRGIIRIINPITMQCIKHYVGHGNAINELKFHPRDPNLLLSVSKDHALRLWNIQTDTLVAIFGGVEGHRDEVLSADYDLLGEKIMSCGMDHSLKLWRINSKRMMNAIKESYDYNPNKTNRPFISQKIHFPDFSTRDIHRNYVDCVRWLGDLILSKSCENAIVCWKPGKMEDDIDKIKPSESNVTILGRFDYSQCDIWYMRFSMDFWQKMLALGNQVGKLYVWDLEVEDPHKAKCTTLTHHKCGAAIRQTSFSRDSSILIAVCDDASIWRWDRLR
EZH2 (PRC2), sequence (Q15022 whole entry partner): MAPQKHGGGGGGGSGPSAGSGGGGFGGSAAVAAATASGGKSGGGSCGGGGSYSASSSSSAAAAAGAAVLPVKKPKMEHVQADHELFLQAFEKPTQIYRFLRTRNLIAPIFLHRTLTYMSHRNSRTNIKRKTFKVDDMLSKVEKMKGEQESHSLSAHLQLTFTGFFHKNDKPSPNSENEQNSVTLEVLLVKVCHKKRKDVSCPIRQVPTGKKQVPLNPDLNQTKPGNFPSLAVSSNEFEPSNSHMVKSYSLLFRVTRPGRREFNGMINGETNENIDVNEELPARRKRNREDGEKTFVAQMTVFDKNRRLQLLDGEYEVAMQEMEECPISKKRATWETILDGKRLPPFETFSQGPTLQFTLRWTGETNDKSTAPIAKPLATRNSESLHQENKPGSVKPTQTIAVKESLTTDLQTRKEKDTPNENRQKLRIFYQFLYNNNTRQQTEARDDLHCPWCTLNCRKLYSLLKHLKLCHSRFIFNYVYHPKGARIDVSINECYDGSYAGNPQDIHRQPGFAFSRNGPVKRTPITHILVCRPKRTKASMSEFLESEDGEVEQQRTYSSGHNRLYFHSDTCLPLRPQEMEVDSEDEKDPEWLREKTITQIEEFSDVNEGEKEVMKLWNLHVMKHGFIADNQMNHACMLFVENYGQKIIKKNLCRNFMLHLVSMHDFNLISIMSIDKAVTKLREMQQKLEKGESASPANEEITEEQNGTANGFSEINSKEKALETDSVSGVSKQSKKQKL
EZH2 (PRC2), sequence (Q09028 2-425 partner): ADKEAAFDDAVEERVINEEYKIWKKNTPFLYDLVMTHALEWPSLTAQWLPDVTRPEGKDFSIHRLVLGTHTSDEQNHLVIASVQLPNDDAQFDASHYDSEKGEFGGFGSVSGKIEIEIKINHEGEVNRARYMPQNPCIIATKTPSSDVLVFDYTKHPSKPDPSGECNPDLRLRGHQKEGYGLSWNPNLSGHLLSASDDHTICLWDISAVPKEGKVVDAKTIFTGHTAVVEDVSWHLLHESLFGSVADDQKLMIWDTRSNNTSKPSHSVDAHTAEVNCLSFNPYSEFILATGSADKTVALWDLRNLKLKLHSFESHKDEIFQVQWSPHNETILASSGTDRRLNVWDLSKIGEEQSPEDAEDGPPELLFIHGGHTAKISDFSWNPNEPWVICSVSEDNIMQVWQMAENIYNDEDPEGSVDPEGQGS

EZH2 Y646N (PRC2/EZH2^Y646N), sequence (Q15910 whole entry Y641N): as the sequence (Q15910 whole entry) above, with Y641N counted along it
EZH2 Y646N (PRC2/EZH2^Y646N), sequence (O75530 2-441 partner): as the sequence (O75530 2-441 partner) above
EZH2 Y646N (PRC2/EZH2^Y646N), sequence (Q15022 whole entry partner): as the sequence (Q15022 whole entry partner) above
EZH2 Y646N (PRC2/EZH2^Y646N), sequence (Q09028 2-425 partner): as the sequence (Q09028 2-425 partner) above

## COC(=O)c1ccc(NC(=O)c2ccc(NC(=O)c3ccc([N+](=O)[O-])c(OCc4ccccc4)n3)c(OCc3ccccc3)n2)c(OCCCN)n1 [ADH-61]
[1]
  IC50: 0.891 ± 0.096 µM
EZH2 (PRC2)
  IC50: 0.766 ± 0.71 µM
